Like-named read-outs stand apart in the source and are kept apart here.
How the values were obtained:
Format in all cases: biochemical
KRAS G12D = target: T1, KRAS G12D (Homo sapiens, UniProt P01116, G12D); test: HTRF nucleotide exchange assay (NEA), KRAS G12D; settings: recombinant human KRAS G12D aa1-188, 2 nM; lowest class = % inhibition at 10 μM
T1 construct: Recombinant human RAS protein (2 nM)
Outline: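 Compound binding to KRAS G12D was measured by HTRF nucleotide exchange. Recombinant human KRAS G12D (aa1-188, N-terminal 6×His-tag, 2 nM) and 2 nM Europium anti-6×His antibody were combined with compound in 5 uL assay buffer in 384-well plates for 60 minutes at room temperature, then 5 ul of 200 nM EDA-GTP-DY647P1 was added for 30 minutes before time-resolved fluorescence reading.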

KRAS WT = target: T2, KRAS WT (Homo sapiens, UniProt P01116); test: HTRF nucleotide exchange assay (NEA), KRAS WT
T2 construct: Recombinant human RAS protein (2 nM); aa1-188 KRAS WT
T2 sequence (P01116 1-188 isoform P01116-2): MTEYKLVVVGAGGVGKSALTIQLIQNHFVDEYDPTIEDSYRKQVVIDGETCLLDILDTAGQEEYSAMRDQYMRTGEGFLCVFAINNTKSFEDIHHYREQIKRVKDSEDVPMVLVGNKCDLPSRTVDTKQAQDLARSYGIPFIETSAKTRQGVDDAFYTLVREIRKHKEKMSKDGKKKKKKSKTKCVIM
Outline: (§1)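 His-tagged KRAS aa1-188 (2 nM WT or G13D; 4 nM G12C or G12S) was preincubated with compound and 2 nM Eu-anti-His antibody in HEPES pH7.3 buffer with 100 mM KF for 60 min at room temperature. A 200 nM EDA-GTP-DY647P1 solution was added, and TR-FRET was read after 30 min. IC50 came from a four-parameter logistic fit.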

KRAS G12C = target: T3, KRAS G12C (Homo sapiens, UniProt P01116, G12C); test: HTRF nucleotide exchange assay (NEA), KRAS G12C
T3 construct: 4 nM KRAS; aa1-188 containing the G12V, G12C, G12A or G12S amino acid substitution
T3 sequence (P01116 1-188 isoform P01116-2 G12C): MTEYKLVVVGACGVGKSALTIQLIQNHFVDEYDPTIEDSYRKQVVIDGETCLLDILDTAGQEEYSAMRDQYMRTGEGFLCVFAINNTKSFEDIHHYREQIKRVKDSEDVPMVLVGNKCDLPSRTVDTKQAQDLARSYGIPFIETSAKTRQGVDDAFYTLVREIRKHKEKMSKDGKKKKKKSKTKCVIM
Outline: as §1

KRAS G12V = target: T4, KRAS G12V (Homo sapiens, UniProt P01116, G12V); test: HTRF nucleotide exchange assay (NEA), KRAS G12V
T4 construct: 4 nM KRAS; aa1-188 containing the G12V, G12C, G12A or G12S amino acid substitution
T4 sequence (P01116 1-188 isoform P01116-2 G12V): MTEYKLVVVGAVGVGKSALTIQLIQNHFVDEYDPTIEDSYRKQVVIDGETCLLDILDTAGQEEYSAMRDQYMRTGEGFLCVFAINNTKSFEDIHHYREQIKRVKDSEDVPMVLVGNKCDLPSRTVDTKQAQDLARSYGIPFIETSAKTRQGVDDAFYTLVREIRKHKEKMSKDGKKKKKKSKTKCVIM
Outline: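 Compound binding to KRAS G12V was measured by HTRF nucleotide exchange. Recombinant human KRAS (aa1-188, G12V, N-terminal 6×His-tag and leader sequence) at 4 nM plus 2 nM Europium-labeled anti-6×His antibody were mixed with compound in assay buffer in 5 uL in 384-well plates. After 60 minutes at room temperature, 5 ul of 200 nM EDA-GTP-DY647P1 was added.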

KRAS G12S = target: T5, KRAS G12S (Homo sapiens, UniProt P01116, G12S); test: HTRF nucleotide exchange assay (NEA), KRAS G12S
T5 construct: 4 nM KRAS; aa1-188 containing the G12V, G12C, G12A or G12S amino acid substitution
T5 sequence (P01116 1-188 isoform P01116-2 G12S): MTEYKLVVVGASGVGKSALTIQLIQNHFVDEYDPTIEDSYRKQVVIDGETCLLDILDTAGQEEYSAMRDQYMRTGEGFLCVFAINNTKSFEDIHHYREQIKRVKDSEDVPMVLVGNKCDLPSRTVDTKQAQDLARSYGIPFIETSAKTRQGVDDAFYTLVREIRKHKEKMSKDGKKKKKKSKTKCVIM
Method: (§2) The capacity of compounds to bind KRAS G12D, other KRAS mutants and wildtype RAS isoforms was quantified using a HTRF nucleotide exchange assay. Recombinant human RAS protein (2 nM; aa1-188 KRAS WT, HRAS WT, NRAS WT, or KRAS containing the containing the G12D, G13D or Q61H amino acid substitutions, or 4 nM KRAS; aa1-188 containing the G12V, G12C, G12A or G12S amino acid substitution, an N-terminal 6×His-tag and leader sequence), and 2 nM Europium-labeled anti-6×His antibody were mixed in assay buffer (10 mM HEPES pH7.3, 150 mM NaCl, 5 mM MgCl2, 0.05% BSA, 0.0025% NP-40 and 100 mM KF) with various concentrations of compound in a 384-well plate and a volume of 5 uL. After a 60-minute incubation at room temperature, 5 ul of 200 nM EDA-GTP-DY647P1 (diluted in assay buffer) was added to the plate. Following 30-minute incubation at room temperature, time-resolved fluorescence was measured on a PerkinElmer Envision plate reader. DMSO (0.3%) and unlabeled […] (1 μM) or equivalent tool compound were used to generate the Max and Min assay signals, respectively. Data was analysed using a four-parameter logistic model to calculate IC50 values, with at least two independent replicates were performed for each compound.

KRAS G12A = target: T6, KRAS G12A (Homo sapiens, UniProt P01116, G12A); test: HTRF nucleotide exchange assay (NEA), KRAS G12A
T6 construct: 4 nM KRAS; aa1-188 containing the G12V, G12C, G12A or G12S amino acid substitution
T6 sequence (P01116 1-188 isoform P01116-2 G12A): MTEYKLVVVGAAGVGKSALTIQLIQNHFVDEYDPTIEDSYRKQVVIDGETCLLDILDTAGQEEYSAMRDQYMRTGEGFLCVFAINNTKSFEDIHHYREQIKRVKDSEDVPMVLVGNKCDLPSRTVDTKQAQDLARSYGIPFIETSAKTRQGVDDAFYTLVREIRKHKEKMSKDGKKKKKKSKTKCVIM
Method: as §2

KRAS G13D = target: T7, KRAS G13D (Homo sapiens, UniProt P01116, G13D); test: HTRF nucleotide exchange assay (NEA), KRAS G13D
T7 construct: Recombinant human RAS protein (2 nM); aa1-188 KRAS WT
T7 sequence (P01116 1-188 isoform P01116-2 G13D): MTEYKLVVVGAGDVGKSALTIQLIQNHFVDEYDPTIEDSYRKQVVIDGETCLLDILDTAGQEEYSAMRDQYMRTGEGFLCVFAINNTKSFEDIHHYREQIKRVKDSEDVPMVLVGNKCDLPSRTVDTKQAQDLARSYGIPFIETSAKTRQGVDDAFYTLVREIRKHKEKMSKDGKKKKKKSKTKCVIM
Method: as §2

KRAS Q61H = target: T8, KRAS Q61H (Homo sapiens, UniProt P01116, Q61H); test: HTRF nucleotide exchange assay (NEA), KRAS Q61H
T8 construct: Recombinant human RAS protein (2 nM); aa1-188 KRAS WT
T8 sequence (P01116 1-188 isoform P01116-2 Q61H): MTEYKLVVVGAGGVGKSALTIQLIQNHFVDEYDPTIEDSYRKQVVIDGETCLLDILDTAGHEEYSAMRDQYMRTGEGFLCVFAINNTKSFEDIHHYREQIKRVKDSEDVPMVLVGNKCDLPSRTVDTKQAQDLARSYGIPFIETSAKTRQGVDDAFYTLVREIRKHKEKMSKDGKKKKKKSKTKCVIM
Method: as §2

[1] = recombinant human KRAS G13D aa1-188, 2 nM, lowest class = % inhibition at 10 μM
[2] = recombinant human KRAS G12S aa1-188, 4 nM, lowest class = % inhibition at 10 μM

T1 sequence (P01116 1-188 isoform P01116-2 G12D): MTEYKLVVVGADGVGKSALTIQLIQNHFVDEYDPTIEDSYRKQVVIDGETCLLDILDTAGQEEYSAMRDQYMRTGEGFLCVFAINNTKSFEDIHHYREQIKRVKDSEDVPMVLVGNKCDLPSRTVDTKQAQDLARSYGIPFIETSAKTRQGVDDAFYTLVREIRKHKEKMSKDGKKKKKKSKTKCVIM

IC50 (KRAS G12D) [µM] | IC50 (KRAS WT) [µM] | IC50 (KRAS G12C) [µM] | IC50 (KRAS G12V) [µM] | IC50 (KRAS G12S) [µM] | IC50 (KRAS G12A) [µM] | IC50 (KRAS G13D) [µM] | IC50 (KRAS Q61H) [µM] | IC50 (KRAS G13D; [1]) [µM] | IC50 (KRAS G12S; [2]) [µM] | Compound
≤ 0.01 | 0.01 to 0.1 | ≤ 0.01 | ≤ 0.01 | 0.01 to 0.1 | ≤ 0.01 | 0.1 to 10 | 0.01 to 0.1 | – | – | Oc1cc(-c2ncc3c(N4CCCOCC4)nc(OCC45CCCN4CCC5)nc3c2F)c2ccccc2c1 [Example 3, 4-[8-fluoro-2-(1,2,3,5,6,7-hexahydropyrrolizin-8-ylmethoxy)-4-(1,4-oxazepan-4-yl)pyrido[4,3-d]pyrimidin-7-yl]naphthalen-2-ol]
0.1 to 10 | 0.1 to 10 | 0.1 to 10 | 0.1 to 10 | – | 0.1 to 10 | – | – | > 10 | > 10 | Oc1cc(-c2ncc3c(N4CCOC5(CCCC5)C4)nc(OCC45CCCN4CCC5)nc3c2F)c2ccccc2c1 [Example 4, 4-[8-fluoro-2-(1,2,3,5,6,7-hexahydropyrrolizin-8-ylmethoxy)-4-(6-oxa-9-azaspiro[4.5]-decan-9-yl)pyrido[4,3-d]pyrimidin-7-yl]naphthalen-2-ol]
0.1 to 10 | 0.1 to 10 | 0.1 to 10 | 0.1 to 10 | – | – | 0.1 to 10 | 0.1 to 10 | – | – | Oc1cc(-c2ncc3c(N4CCC5(CCOC5)CC4)nc(OCC45CCCN4CCC5)nc3c2F)c2ccccc2c1 [Example 8, 4-[8-fluoro-2-(1,2,3,5,6,7-hexahydropyrrolizin-8-ylmethoxy)-4-(2-oxa-8-azaspiro[4.5]decan-8-yl)pyrido[4,3-d]pyrimidin-7-yl]naphthalen-2-ol]
0.1 to 10 | 0.1 to 10 | 0.1 to 10 | 0.1 to 10 | 0.1 to 10 | 0.1 to 10 | – | – | > 10 | – | O=C1CN(c2nc(OCC34CCCN3CCC4)nc3c(F)c(-c4cc(O)cc5ccccc45)ncc23)CCN1 [Example 10, 4-[8-fluoro-2-(1,2,3,5,6,7-hexahydropyrrolizin-8-ylmethoxy)-7-(3-hydroxy-1-naphthyl)pyrido[4,3-d]pyrimidin-4-yl]piperazin-2-one]
0.01 to 0.1 | 0.1 to 10 | 0.1 to 10 | 0.1 to 10 | 0.1 to 10 | 0.1 to 10 | – | – | > 10 | – | O=C1CCN(c2nc(OCC34CCCN3CCC4)nc3c(F)c(-c4cc(O)cc5ccccc45)ncc23)CCN1 [Example 13]
0.01 to 0.1 | 0.01 to 0.1 | 0.01 to 0.1 | 0.01 to 0.1 | 0.1 to 10 | 0.01 to 0.1 | – | 0.1 to 10 | > 10 | – | CC1COCCN(c2nc(OCC34CCCN3CCC4)nc3c(F)c(-c4cc(O)cc5ccccc45)ncc23)C1 (stereo not drawn) [Example 19, 4-[8-fluoro-2-(1,2,3,5,6,7-hexahydropyrrolizin-8-ylmethoxy)-4-(6-methyl-1,4-oxazepan-4-yl)pyrido[4,3-d]pyrimidin-7-yl]naphthalen-2-ol]
0.01 to 0.1 | 0.01 to 0.1 | 0.01 to 0.1 | 0.01 to 0.1 | 0.1 to 10 | 0.01 to 0.1 | – | – | > 10 | – | Oc1cc(-c2ncc3c(N4CCCCC4)nc(OCC45CCCN4CCC5)nc3c2F)c2ccccc2c1 [Example 34, 4-[8-fluoro-2-(1,2,3,5,6,7-hexahydropyrrolizin-8-ylmethoxy)-4-(1-piperidyl)pyrido[4,3-d]pyrimidin-7-yl]naphthalen-2-ol]

The remaining lines, values behind:

Compound | IC50 (KRAS G12D) [µM] | IC50 (KRAS WT) [µM] | IC50 (KRAS G12C) [µM] | IC50 (KRAS G12V) [µM] | IC50 (KRAS G12S) [µM] | IC50 (KRAS G12A) [µM] | IC50 (KRAS G13D) [µM] | IC50 (KRAS Q61H) [µM] | IC50 (KRAS G13D; [1]) [µM] | IC50 (KRAS G12S; [2]) [µM]
C#Cc1c(F)ccc2cc(O)cc(-c3ncc4c(N5CCCCCC5)nc(OC[C@@]56CCCN5C[C@H](F)C6)nc4c3F)c12 (relative stereo) [Example 84, 4-[4-(azepan-1-yl)-8-fluoro-2-[[trans-2-fluoro-1,2,3,5,6,7-hexahydropyrrolizin-8-yl]methoxy]pyrido[4,3-d]pyrimidin-7-yl]-5-ethynyl-6-fluoro-naphthalen-2-ol] | ≤ 0.01 | ≤ 0.01 | ≤ 0.01 | ≤ 0.01 | ≤ 0.01 | ≤ 0.01 | 0.1 to 10 | ≤ 0.01 | – | –
C#Cc1c(F)ccc2cc(O)cc(-c3ncc4c(NCCCOC)nc(OC[C@@]56CCCN5C[C@H](F)C6)nc4c3F)c12 (relative stereo) [Example 85, 5-ethynyl-6-fluoro-4-[8-fluoro-2-[[trans-2-fluoro-1,2,3,5,6,7-hexahydropyrrolizin-8-yl]methoxy]-4-(3-methoxypropylamino)pyrido[4,3-d]pyrimidin-7-yl]naphthalen-2-ol] | ≤ 0.01 | ≤ 0.01 | ≤ 0.01 | ≤ 0.01 | 0.01 to 0.1 | ≤ 0.01 | – | 0.01 to 0.1 | > 10 | –
Oc1cc(-c2ncc3c(N4CC5CNCC5C4)nc(OCC45CCCN4CCC5)nc3c2F)c2ccccc2c1 (stereo not drawn) [Example 1, 4-[4-(2,3,3a,4,6,6a-hexahydro-1H-pyrrolo[3,4-c]pyrrol-5-yl)-8-fluoro-2-(1,2,3,5,6,7-hexahydropyrrolizin-8-ylmethoxy)pyrido[4,3-d]pyrimidin-7-yl]naphthalen-2-ol] | 0.01 to 0.1 | 0.1 to 10 | 0.1 to 10 | 0.1 to 10 | – | – | 0.1 to 10 | 0.1 to 10 | – | –
Oc1cc(-c2ncc3c(NCC4CCOCC4)nc(OCC45CCCN4CCC5)nc3c2F)c2ccccc2c1 [Example 9, 4-[8-fluoro-2-(1,2,3,5,6,7-hexahydropyrrolizin-8-ylmethoxy)-4-(tetrahydropyran-4-ylmethylamino)pyrido[4,3-d]pyrimidin-7-yl]naphthalen-2-ol] | 0.1 to 10 | 0.1 to 10 | 0.1 to 10 | 0.1 to 10 | 0.1 to 10 | 0.1 to 10 | – | – | > 10 | –
O=C1CN(c2nc(OCC34CCCN3CCC4)nc3c(F)c(-c4cc(O)cc5ccccc45)ncc23)CCCN1 [Example 14, 4-[8-fluoro-2-(1,2,3,5,6,7-hexahydropyrrolizin-8-ylmethoxy)-7-(3-hydroxy-1-naphthyl)pyrido[4,3-d]pyrimidin-4-yl]-1,4-diazepan-2-one] | 0.01 to 0.1 | 0.1 to 10 | 0.01 to 0.1 | 0.01 to 0.1 | 0.1 to 10 | 0.1 to 10 | – | – | > 10 | –
CSCCCN(C)c1nc(OCC23CCCN2CCC3)nc2c(F)c(-c3cc(O)cc4ccccc34)ncc12 [Example 27, 4-[8-fluoro-2-(1,2,3,5,6,7-hexahydropyrrolizin-8-ylmethoxy)-4-[methyl(3-methylsulfanylpropyl)amino]pyrido[4,3-d]pyrimidin-7-yl]naphthalen-2-ol] | 0.1 to 10 | 0.1 to 10 | 0.1 to 10 | – | 0.1 to 10 | 0.1 to 10 | – | – | > 10 | –
COCC1CCN(c2nc(OCC34CCCN3CCC4)nc3c(F)c(-c4cc(O)cc5ccccc45)ncc23)C1 (stereo not drawn) [Example 33, 4-[8-fluoro-2-(1,2,3,5,6,7-hexahydropyrrolizin-8-ylmethoxy)-4-[3-(methoxymethyl)pyrrolidin-1-yl]pyrido [4,3-d]pyrimidin-7-yl]naphthalen-2-ol] | 0.1 to 10 | 0.1 to 10 | – | – | – | 0.1 to 10 | – | – | > 10 | > 10
Oc1cc(-c2ncc3c(NC4CCCCCC4)nc(OCC45CCCN4CCC5)nc3c2F)c2ccccc2c1 [Example 36, 4-[4-(cycloheptylamino)-8-fluoro-2-(1,2,3,5,6,7-hexahydropyrrolizin-8-ylmethoxy)pyrido [4,3-d]pyrimidin-7-yl]naphthalen-2-ol] | 0.1 to 10 | 0.1 to 10 | – | – | – | 0.1 to 10 | – | – | > 10 | > 10
